Results from patent US20220409650A1, “COMPOSITIONS AND METHODS FOR ASCAROSIDE MODIFICATION OF MAMMALIAN MICROBIOTA” (Holoclara, Inc., priority 2019, published 2022).
Entries after “also recorded” stand apart in the source; their conditions may differ.

Assays:
Type in all cases: in vivo, C57BL6 mice
gut microbiota = assay: Gut microbiota diversity (Shannon alpha diversity) from shotgun metagenomic sequencing of stool of treated mice; conditions: stools at end
Protocol: (§1) In the methods described for each of these examples, C57BL6 mice at 6 weeks of age were allowed to be appropriately acclimated before the start of the change in diet and treatments. For Experiment 1 (Example 1), thirty-two mice were evenly distributed into four groups with Group 1 as the control diet, no treatment, Group 2 as the high-fat diet, treat with DMSO control, Group 3 as the high-fat diet, treated with 12.5 μg of Ascr #7/mouse per injection (0.5 mg/kg dose assuming a 25 gm mouse), Group 4 as the high-fat diet, treated with 4.1 μg Ascr #9/mouse per injection (0.164 mg/kg dose assuming a 25 gm mouse). […]
(§2) DNA was extracted using the Qiagen MagAttract PowerSoil DNA KF kit (Formerly MO Bio PowerSoil DNA Kit) using a KingFisher robot. DNA quality was evaluated visually via gel electrophoresis and quantified using a Qubit 3.0 fluorometer (Thermo-Fischer, Waltham, Mass., USA). […]
(§3) Paired-end sequencing (150 bp×2) was done on a NextSeq 500 in medium-output mode. Shotgun metagenomic sequence reads were processed with the Sunbeam pipeline. […] Processing took part in four steps: adapter removal, read trimming, low-complexity reads removal, and host-sequence read removal. […] Low-complexity sequences were detected with Komplexity v0.3.6.
(§4) The remaining reads were taxonomically classified using Kraken2 with the MiniKraken2_v1 database. […]

[1] = test system: Bifidobacterium (e.g., Bifidobacterium catenulatum); assay: Differential abundance of Bifidobacterium in gut microbiota of treated mice (stool sequencing); conditions: stools at end
Protocol: as §1, §2, §3, §4

Akkermansia = assay: Differential abundance of Akkermansia in gut microbiota of treated mice (stool sequencing); conditions: Experiment 1, mice, 31 days of treatment, stools at end, vs control (FIG. 9)
Protocol: as §1, §2, §3, §4

Adlercreutzia = assay: Differential abundance of Adlercreutzia in gut microbiota of treated mice (stool sequencing); conditions: Experiment 1, mice, 31 days of treatment, stools at end, vs control (FIG. 9)
Protocol: as §1, §2, §3, §4

[2] = Stool consistency (Bristol Stool Chart) of treated mice; conditions: Experiment 3, mice, 12.5 μg/mouse IP, stools at end, vs untreated control (FIG. 10)
Protocol: For Experiment 3, ten mice were assigned Group 7 to be treated with DMSO control. Eight mice were assigned to Group 8 to be treated with 12.5 μg of Ascr #7/mouse per injection (0.5 mg/kg dose assuming a 25 gm mouse). Nine mice were assigned to Group 9 to be treated with 12.5 μg of Compound 1/mouse per injection (0.5 mg/kg dose assuming a 25 gm mouse). To make the master stocks, Ascr #7 and Compound 1 were dissolved in DMSO to make 10 μg/uL of the Ascr #7 and Compound 1 master stocks and 12.5 μL of each master stocks were aliquoted into glass vials for each day of injection. Mice from each group were IP injected three times a week for 3 weeks and one day for a total of 10 injections. On each day of IP injection, 987.5 μL of ultra-pure water is added to each master stocks to make 0.125 μg/uL of Ascr #7 and Compound 1 working stocks and 100 μL of each was IP injected into mice. As will be described in greater detail below, Compound 1 refers to the ascaroside derisive:
The methods and compositions described herein may also be used to treat constipation. Constipation, which accompanies various diseases, may be a symptom of underlying defects in either transit of fecal mass through the gut or defecation, a commonly diagnosed functional gastrointestinal disorder. […]

| Compound | alpha diversity of the gut microbiota (Shannon's diversity index) (gut microbiota; Experiment 3, mice, 12.5 μg/mouse IP three times a week, 10 injections, vs DMSO control (FIG. 3)) | amount of Bifidobacter in the gut microbiota ([1]; Experiment 1, mice, 31 days of treatment, vs control (FIG. 9)) | amount of Bifidobacterium catenulatum in the gut microbiota ([1]; Experiment 3, mice, vs control (FIG. 8)) | amount of Akkermansia in the gut microbiota (Akkermansia) | amount of Adlercreutzia in the gut microbiota (Adlercreutzia) | proportion of feces with Type 4 stools (smooth and soft, Bristol Stool Chart) [2] | alpha diversity of the gut microbiota (Shannon's diversity index) (gut microbiota; Experiment 1, high-fat diet mice, 4.1 μg/mouse IP three times a week for 31 days, vs control (FIG. 4)) |
| --- | --- | --- | --- | --- | --- | --- | --- |
| C[C@H](CC/C=C/C(=O)O)O[C@@H]1O[C@@H](C)[C@H](O)C[C@H]1O [Ascr #7] | increased alpha diversity; also recorded: substantial increase in diversity | increases | specific increase; also recorded: increased significantly | increases; also recorded: increase in the overall amount | increases; also recorded: increase in the overall amount | significantly higher proportion of feces with Type 4 stools | – |
| C[C@H](CCC(=O)O)O[C@@H]1O[C@@H](C)[C@H](O)C[C@H]1O [Ascr #9] | – | – | – | increase in the overall amount | increase in the overall amount | – | increase in alpha diversity; also recorded: increased |
| C[C@H](CC/C=C/C(=O)OC(C)(C)C)O[C@@H]1O[C@@H](C)[C@H](O)C[C@H]1O [Compound 1, tert-butyl (2E,6R)-6-{[(2R,3R,5R,6S)-3,5-dihydroxy-6-methyloxan-2-yl]oxy}hept-2-enoate] | – | – | – | – | – | significantly higher proportion of feces with Type 4 stools | – |
